Experimental data published in patent US9957251B2 (Takeda Pharmaceutical Company Limited, priority 2014, dated 2018).

How the values were obtained:
[1] = test system: human multiple myeloma RPMI8226 cells; assay: Inhibitory activity against human multiple myeloma RPMI8226 cell growth (CellTiter-Glo); format: cell-based; conditions: Homo sapiens, RPMI-8226, 192 h, 1 μM of the test compound, cultured for 8 days; read-out: Percent inhibition of RPMI8226 cell growth (%)
Experimental: The compound of the present invention was evaluated for its inhibitory activity against human multiple myeloma RPMI8226 cell growth by the following method.
A suspension of human multiple myeloma RPMI8226 cells (purchased from the Health Protection Agency) was inoculated at 40 μL (300 cells/well) to a 384-well plate and cultured at 37° C. for 1 day in a 5% CO2 incubator. After the culture, each test compound solution was added thereto at a test concentration of 1 μM using TECAN D300, and the cells were further cultured for 8 days. After the culture, CellTiter-Glo™ Luminescent Cell Viability Assay reagent (Promega) was added at 40 μL/well to a 384-well plate, and the amount of luminescence was measured using a luminometer. Inhibitory activity against human multiple myeloma RPMI8226 cell growth (percent inhibition (%)) of the test compound was calculated according to the following formula, which is based on the hypothesis that the amount of residual ATP reflects the number of cells. In this formula, 100% control represents the amount of luminescence from a well with only 0.1% DMSO added. Percent inhibition (%)=(1−(amount of luminescence of the test compound)÷(100% control))×100

CDK19 (CDC2L6/CycC) = target: T1, CDK19 (CDC2L6/CycC) (Homo sapiens, UniProt Q9BWU1); assay: CDK19 inhibitory activity (TR-FRET, Kinase Tracer-236 displacement); format: binding; conditions: 1 μM of the test compound; read-out: Percent inhibition of CDK19 activity (%)
T1 construct: purchased Carna Biosciences
T1 sequence (Q9BWU1 whole entry): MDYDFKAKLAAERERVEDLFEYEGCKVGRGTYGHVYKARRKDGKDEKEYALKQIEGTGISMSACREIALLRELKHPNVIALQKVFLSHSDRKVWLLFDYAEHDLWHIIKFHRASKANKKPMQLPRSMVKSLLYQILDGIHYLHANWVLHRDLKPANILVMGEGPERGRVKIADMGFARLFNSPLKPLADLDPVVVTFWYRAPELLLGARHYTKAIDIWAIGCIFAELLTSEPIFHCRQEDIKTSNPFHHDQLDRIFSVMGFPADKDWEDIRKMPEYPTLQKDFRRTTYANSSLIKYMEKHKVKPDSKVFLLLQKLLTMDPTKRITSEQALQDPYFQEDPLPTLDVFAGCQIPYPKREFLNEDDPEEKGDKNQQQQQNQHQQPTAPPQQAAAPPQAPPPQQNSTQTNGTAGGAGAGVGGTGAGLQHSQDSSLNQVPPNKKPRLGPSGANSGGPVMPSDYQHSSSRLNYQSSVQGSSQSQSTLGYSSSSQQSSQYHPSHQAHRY
T1 sequence (P24863 whole entry partner): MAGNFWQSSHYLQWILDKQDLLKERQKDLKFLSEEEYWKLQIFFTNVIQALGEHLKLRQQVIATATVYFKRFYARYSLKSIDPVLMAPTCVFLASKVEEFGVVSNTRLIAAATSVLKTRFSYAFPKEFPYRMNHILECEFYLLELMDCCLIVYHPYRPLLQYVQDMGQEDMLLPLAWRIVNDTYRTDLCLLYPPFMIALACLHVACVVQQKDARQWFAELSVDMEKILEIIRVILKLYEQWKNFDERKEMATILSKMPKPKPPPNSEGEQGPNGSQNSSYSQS
Experimental: (§1) The compound of the present invention was evaluated for its CDK8 inhibitory activity and CDK19 inhibitory activity by the following method. […] The primary diluted solution was dispensed in the amount of 2 μL/well to a 384-well plate, and then, a mixed solution of Eu^3+ Cryptate conjugated mouse monoclonal antibody anti-glutathione S-transferase (Cisbio) diluted 267-fold with an assay buffer and 60 nM Kinase Tracer-236 (Life technologies) was added thereto at 2 μL/well. After the addition, each kinase solution (84 ng/mL CDK8/CycC (Carna Biosciences) diluted with an assay buffer used for CDK8 inhibitory activity measurement, and 87 ng/mL CDC2L6/CycC (Carna Biosciences) diluted with an assay buffer used for CDK19 inhibitory activity measurement) was further added thereto at 2 μL/well. After the addition, the plate was left standing at room temperature for 1 hour, and then, the fluorescence intensity (excitation wavelength 320 nm, fluorescence wavelength 615 nm, 665 nm, delay time 50 μsec) was measured using an EnVision plate reader (PerkinElmer).

CDK8/CycC = target: T2, CDK8/CycC (Homo sapiens, UniProt P49336); assay: CDK8 inhibitory activity (TR-FRET, Kinase Tracer-236 displacement); format: binding; conditions: 1 μM of the test compound; read-out: Percent inhibition of CDK8 activity (%)
T2 construct: purchased Carna Biosciences
T2 sequence (P49336 whole entry): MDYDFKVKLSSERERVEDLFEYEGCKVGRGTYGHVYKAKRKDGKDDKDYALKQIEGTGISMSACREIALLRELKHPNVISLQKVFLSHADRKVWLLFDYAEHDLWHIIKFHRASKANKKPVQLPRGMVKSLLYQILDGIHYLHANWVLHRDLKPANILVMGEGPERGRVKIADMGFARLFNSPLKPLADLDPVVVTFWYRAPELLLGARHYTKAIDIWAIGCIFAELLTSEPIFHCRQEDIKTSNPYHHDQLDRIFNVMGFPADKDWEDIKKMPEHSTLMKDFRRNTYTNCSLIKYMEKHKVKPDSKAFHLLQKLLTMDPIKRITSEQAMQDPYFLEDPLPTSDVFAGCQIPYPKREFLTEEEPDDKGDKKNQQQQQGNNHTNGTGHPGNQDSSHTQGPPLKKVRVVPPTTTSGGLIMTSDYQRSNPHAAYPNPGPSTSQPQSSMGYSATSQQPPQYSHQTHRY
T2 sequence (P24863 whole entry partner): as the sequence (P24863 whole entry partner) above
Experimental: as §1

inhibition at 1 µM (CDK19 (CDC2L6/CycC)) [%] | inhibition at 1 µM (CDK8/CycC) [%] | Compound | inhibition at 1 µM [1] [%]
100 | 101 | O=C(/C=C/c1cnccc1-c1cccs1)Nc1ccc(CCc2nnco2)cc1 [Example 1, (2E)-N-(4-(2-(1,3,4-Oxadiazol-2-yl)ethyl)phenyl)-3-(4-(2-thienyl)pyridin-3-yl)acrylamide] | 59
98 | 100 | Cc1nn(C)cc1-c1ccncc1/C=C/C(=O)Nc1ccc(CCc2nnco2)cc1 [Example 19, (2E)-3-(4-(1,3-dimethyl-1H-pyrazol-4-yl)pyridin-3-yl)-N-(4-(2-(1,3,4-oxadiazol-2-yl)ethyl)phenyl)acrylamide] | 54
98 | 100 | Cn1cc(-c2ccncc2/C=C/C(=O)Nc2ccc(CN3CCOCC3)cc2)cn1 [Example 31, (2E)-3-(4-(1-Methyl-1H-pyrazol-4-yl)pyridin-3-yl)-N-(4-(morpholin-4-ylmethyl)phenyl)acrylamide] | 60
99 | 100 | O=C(/C=C/c1cnccc1-c1cn[nH]c1)Nc1ccc(CN2CCOCC2)cc1 [Example 33, (2E)-N-(4-(morpholin-4-ylmethyl)phenyl)-3-(4-(1H-pyrazol-4-yl)pyridin-3-yl)acrylamide] | 61
101 | 97 | Cn1cc(-c2ccncc2/C=C/C(=O)Nc2ccc(CN3CCOC(C)(C)C3)cc2)cn1 [Example 37, (2E)-N-(4-((2,2-Dimethylmorpholin-4-yl)methyl)phenyl)-3-(4-(1-methyl-1H-pyrazol-4-yl)pyridin-3-yl)acrylamide] | 61
98 | 101 | O=C(/C=C/c1cnccc1-c1cnn(Cc2ccccn2)c1)Nc1ccc(CN2CCOCC2)cc1 [Example 47, (2E)-N-(4-(morpholin-4-ylmethyl)phenyl)-3-(4-(1-(pyridin-2-ylmethyl)-1H-pyrazol-4-yl)pyridin-3-yl)acrylamide] | 57
96 | 95 | Cn1cc(-c2ccncc2/C=C/C(=O)Nc2ccc(CNC3CC3)cc2)cn1 [Example 49, (2E)-N-(4-((cyclopropylamino)methyl)phenyl)-3-(4-(1-methyl-1H-pyrazol-4-yl)pyridin-3-yl)acrylamide] | 56
95 | 100 | CC1COCCN1Cc1ccc(NC(=O)/C=C/c2cnccc2-c2cnn(C)c2)cc1 (stereo not drawn) [Example 54, (2E)-N-(4-((3-methylmorpholin-4-yl)methyl)phenyl)-3-(4-(1-methyl-1H-pyrazol-4-yl)pyridin-3-yl)acrylamide] | 55
99 | 99 | Cn1cc(-c2ccncc2/C=C/C(=O)Nc2ccc(CN3CC(F)(F)C3)cc2)cn1 [Example 69, (2E)-N-(4-((3,3-difluoroazetidin-1-yl)methyl)phenyl)-3-(4-(1-methyl-1H-pyrazol-4-yl)pyridin-3-yl)acrylamide] | 48
99 | 101 | Cn1cc(-c2ccncc2/C=C/C(=O)Nc2ccc(CNCC(F)(F)C(F)(F)F)cc2)cn1 [Example 73, (2E)-3-(4-(1-methyl-1H-pyrazol-4-yl)pyridin-3-yl)-N-(4-(((2,2,3,3,3-pentafluoropropyl)amino)methyl)phenyl)acrylamide] | 56

More lines, now with the values behind:

Compound | inhibition at 1 µM (CDK19 (CDC2L6/CycC)) [%] | inhibition at 1 µM (CDK8/CycC) [%] | inhibition at 1 µM [1] [%]
Cn1cc(-c2ccncc2/C=C/C(=O)Nc2ccc(CN3CCOCC3)cc2F)cn1 [Example 41, (2E)-N-(2-Fluoro-4-(morpholin-4-ylmethyl)phenyl)-3-(4-(1-methyl-1H-pyrazol-4-yl)pyridin-3-yl)acrylamide] | 97 | 99 | 56
Cn1cc(-c2ccncc2/C=C/C(=O)Nc2ccc(CN3CCOCC3)c(Cl)c2)cn1 [Example 42, (2E)-N-(3-Chloro-4-(morpholin-4-ylmethyl)phenyl)-3-(4-(1-methyl-1H-pyrazol-4-yl)pyridin-3-yl)acrylamide] | 99 | 99 | 53
CC(c1ccc(NC(=O)/C=C/c2cnccc2-c2cnn(C)c2)cc1)N1CCOCC1 (stereo not drawn) [Example 43, (2E)-3-(4-(1-methyl-1H-pyrazol-4-yl)pyridin-3-yl)-N-(4-(1-(morpholin-4-yl)ethyl)phenyl)acrylamide] | 98 | 96 | 57
O=C(/C=C/c1cnccc1-c1cnn(CC2CC2)c1)Nc1ccc(CN2CCOCC2)cc1 [Example 45, (2E)-3-(4-(1-(Cyclopropylmethyl)-1H-pyrazol-4-yl)pyridin-3-yl)-N-(4-(morpholin-4-ylmethyl)phenyl)acrylamide] | 99 | 98 | 55
Cn1cc(-c2ccncc2/C=C/C(=O)Nc2ccc(CN3CC4CCC(C3)O4)cc2)cn1 [Example 50, (2E)-3-(4-(1-methyl-1H-pyrazol-4-yl)pyridin-3-yl)-N-(4-(8-oxa-3-azabicyclo[3.2.1]oct-3-ylmethyl)phenyl)acrylamide] | 97 | 96 | 61
Cn1cc(-c2ccncc2/C=C/C(=O)Nc2ccc(CN3CC4CC3CO4)cc2)cn1 (stereo not drawn) [Example 51, (2E)-3-(4-(1-methyl-1H-pyrazol-4-yl)pyridin-3-yl)-N-(4-(2-oxa-5-azabicyclo[2.2.1]hept-5-ylmethyl)phenyl)acrylamide] | 96 | 100 | 58
C[C@@H]1CN(Cc2ccc(NC(=O)/C=C/c3cnccc3-c3cnn(C)c3)cc2)C[C@H](C)O1 [Example 53, (2E)-N-(4-(((2R,65)-2,6-dimethylmorpholin-4-yl)methyl)phenyl)-3-(4-(1-methyl-1H-pyrazol-4-yl)pyridin-3-yl)acrylamide] | 97 | 101 | 58
CC1CN(Cc2ccc(NC(=O)/C=C/c3cnccc3-c3cnn(C)c3)cc2)CCO1 (stereo not drawn) [Example 55, (2E)-N-(4-((2-methylmorpholin-4-yl)methyl)phenyl)-3-(4-(1-methyl-1H-pyrazol-4-yl)pyridin-3-yl)acrylamide] | 97 | 99 | 55
Cn1cc(-c2ccncc2/C=C/C(=O)Nc2ccc(CN3CC(F)(F)OC(F)(F)C3)cc2)cn1 [Example 58] | 98 | 97 | 55
Cn1cc(-c2ccncc2/C=C/C(=O)Nc2ccc(CN3CCC(F)(F)C3)cc2)cn1 [Example 68, (2E)-N-(4-((3,3-difluoropyrrolidin-1-yl)methyl)phenyl)-3-(4-(1-methyl-1H-pyrazol-4-yl)pyridin-3-yl)acrylamide] | 100 | 99 | 62
Cn1cc(-c2ccncc2/C=C/C(=O)Nc2ccc(CN3CCCC3CO)cc2)cn1 (stereo not drawn) [Example 76, (2E)-N-(4-((2-(hydroxymethyl)pyrrolidin-1-yl)methyl)phenyl)-3-(4-(1-methyl-1H-pyrazol-4-yl)pyridin-3-yl)acrylamide] | 93 | 104 | 52
